Data taken from patent US20230097226A1, “GENERATING AORTA-GONAD-MESONEPHROS-LIKE HEMATOPOIETIC CELLS FROM HUMAN PLURIPOTENT STEM CELLS UNDER A DEFINED CONDITION” (Purdue Research Foundation, priority 2020, published 2023).

Columns and labels:
Assay type in all cases: cell-based, human
[1] = test system: Wnt signaling; assay: RT-PCR of day 6 HE samples (WNT3A, AXIN2) and 7TGP Wnt reporter line; details: for transcriptional activity of endogenous Wnt signaling: H9 7TGP Wnt reporter line, day 6, eGFP flow cytometry; for expression of WNT3A and AXIN2: RT-PCR, day 6 HE samples
Description: Cells cultured on 24-well plate were collected and lysed in 500 μL TRIzol™ reagent (Invitrogen). Total RNA were then prepared with the Direct-zol RNA miniprep kit (Zymo) with in-column DNase treatment following the manufacture's instruction. cDNA was reverse transcribed from 1 μg RNA with ProtoScript First Strand cDNA Synthesis Kit (NEB) and used for RT-PCR with GoTaq Green Master Mix (Promega).

[2] = test system: hPSC-derived hemogenic endothelium; assay: Hematopoietic specification of hPSC-derived hemogenic endothelium, flow cytometry for CD45; details: for generation of CD45+ hematopoietic cells: screening of chemicals and cytokines, feeder-free conditions, 19-9-11 iPSC-derived HE; for yield and purity of CD45+ hematopoietic cells on retrieval from the differentiation medium: day 15 cultures, SCF and FLT3L withdrawn; for yield of resulting stem cells: day 12, differentiation factor applied at hematopoietic specification stage; for efficiency of generating AGM-like hematopoietic stem cells when used in place of SB431542: Day 4-6 of differentiation
Description: While OP9-DLL4 stromal cells have been used to efficiently induce hematopoietic and immune cells from our small-molecule induced HE [32], the undefined nature of feeder cells may lead to inaccurate investigation of signaling pathways during hematopoiesis. Thus, to develop a chemically-defined hematopoietic specification platform, screening of known chemicals and cytokines was performed on our hPSC-derived AGM-like HE under feeder-free conditions (FIG. 2A). […] Wnt-059 and SB-induced hematopoiesis were also applicable to H9 and 6-9-9 hPSCs (FIG. 2E).
19-9-11, 19-9-7, 6-9-9, H1, H9 and H13 were obtained from WiCell and maintained on Matrigel- or iMatrix 511-coated plates in mTeSR plus or mTeSR1 medium according to a previously published method. RUES2 were kindly provided by Dr. Ali H. Brivanlou at the Rockefeller University. The Kolf2 and CT2 data were acquired in Dr. Yang Yang's lab and Dr. Ourania Andrisani's lab at Purdue. H9 7TGFβ Wnt reporter and 19-9-11 ischcat-1 as well as ischcat-2 lines were kindly provided by Dr. Sean Palecek at University of Wisconsin-Madison. To make hematopoietic cells, hPSCs were dissociated with 1 mM EDTA and seeded onto iMatrix 511 or Matrigel-coated 6-, 12- or 24-well plate at a cell density between 10,000 and 80,000 cell/cm^2 in mTeSR plus or mTeSR1 medium with 5 μM Y27632 for 24 hours (day-1). At day 0, cells were treated with 6 μM CHIR99021 (CHIR) in DMEM medium supplemented with 100 ug/ml ascorbic acid (DMEM/Vc), followed by a medium change with LasR basal medium at day 1, day 2 and day 3. For female hPSC lines, 50 ng/mL VEGF was added to the medium from day 2 to day 4. At day 4, medium was replaced by Stemline II medium (Sigma) supplemented 10 μM SB431542. After 2 days, SB431542-containing medium was aspirated and cells were maintained in Stemline II medium with or without 50 ng/mL SCF and FLT3L. At day 9 and every 2 to 3 days afterwards, aspirate half medium and add fresh Stemline II medium with or without SCF/FLT3L until analysis. Other media used to induce hematopoietic cells were illustrated in FIG. 8B.
(§1) Floating hematopoietic cells were gently pipetted and filtered through a 70 or 100 μm strainer sitting on a 50 ml tube. The cells were then pelleted by centrifugation and washed once in PBS−/−solution with 1% bovine serum albumin (BSA). The cells were stained with appropriate conjugated antibodies (Table 1) for 25 mins at room temperature in dark, and analyzed in Accuri C6 plus flow cytometer (Beckton Dickinson) after washing once with BSA-containing PBS−/−solution. FlowJo software was used to process collected flow data.

[3] = test system: hPSCs; assay: Hemogenic endothelium differentiation of hPSCs, flow cytometry and immunostaining for CD34/SOX17; details: early CHIR treatment; day 5 cultures
Excerpt: Producing hemogenic endothelium (HE) from hPSCs, marked by the expression of typical endothelial marker VE-cadherin, CD31, and CD34, is a vital step towards hematopoietic cell generation. We've previously developed a robust protocol to generate homogenous CD34+CD31+HE from hPSCs via small-molecule activation of Wnt signaling (FIG. 1A-B). Since simultaneous modulation of Wnt and Activin signaling yields aorta-like SOX17+ vessels in AGM that give rise to hematopoietic cells, we speculated that our small molecule-induced CD34+CD31+ cells are also SOX17+, which was confirmed by flow cytometry and immunostaining analysis of SOX17 expression (FIG. 1C-D). […] Importantly, the resulting CD34+SOX17+AGM-like HE didn't express CD235a, markers of primitive hematopoiesis.
19-9-11, 19-9-7, 6-9-9, H1, H9 and H13 were obtained from WiCell and maintained on Matrigel- or iMatrix 511-coated plates in mTeSR plus or mTeSR1 medium according to a previously published method. RUES2 were kindly provided by Dr. Ali H. Brivanlou at the Rockefeller University. […]
as §1, with “The cells were then pelleted by centrifugation and washed once in PBS−/−solution with 1% bovine serum albumin (BSA).” left out, “FlowJo software was used to process collected flow data.” left out

Molecule: Cc1cc(-c2ccc(CC(=O)Nc3ccc(-c4cccnc4)cc3)cc2)ccn1 [Wnt-059]
- transcriptional activity of endogenous Wnt signaling [1]: low transcriptional activity
- expression of WNT3A and AXIN2 [1]: low expression
- generation of CD45+ hematopoietic cells [2]: significantly induced

Molecule: stem cell factor [SCF]
- yield and purity of CD45+ hematopoietic cells on retrieval from the differentiation medium [2]: reduced both the yield and purity

Molecule: thrombopoietin [TPO]
- promotion of hematopoietic cell production [2]: work well
- yield of resulting stem cells [2]: 30.4%

Molecule: Cc1c[nH]c(-c2cnc(NCCNc3ccc(C#N)cn3)nc2-c2ccc(Cl)cc2Cl)n1 [CHIR99021]
- CD34+SOX17+ population obtained [3]: homogenous CD34+SOX17+ population
- effect on hematopoiesis induced by SB ([2]; activation of Wnt signaling together with SB): blocked

Molecule: NC(=O)c1ccc(-c2nc(-c3ccc4c(c3)OCO4)c(-c3ccccn3)[nH]2)cc1 [SB431542]
- transcriptional activity of endogenous Wnt signaling [1]: low transcriptional activity
- expression of WNT3A and AXIN2 [1]: low expression
- CD45+ hematopoietic cells ([2]; SB treatment day 4 to 6, read on day 12, 19-9-11 iPSCs): more than 40%
- yield of resulting stem cells [2]: 40.9%
- generation of CD45+ hematopoietic cells [2]: significantly enhanced

Molecule: heparin
- promotion of hematopoietic cell production [2]: work well
- yield of resulting stem cells [2]: 20.6%

B1: IL-16: cytokine that could be used in place of SB431542, lower efficiency (protein, UniProt Q14005 1212-1332, looked up)
Interleukin-16: SAASASAASDVSVESTAEATVCTVTLEKMSAGLGFSLEGGKGSLHGDKPLTINRIFKGAASEQSETVQPGDEILQLGGTAMQGLTRFEAWNIIKALPDGPVTIVIRRKSLQSKETTAAGDS
- efficiency of generating AGM-like hematopoietic stem cells when used in place of SB431542 [2]: lower efficiency

B2: FMS-like tyrosine kinase 3 ligand (protein, UniProt P49771 27-235, looked up)
Fms-related tyrosine kinase 3 …: TQDCSFQHSPISSDFAVKIRELSDYLLQDYPVTVASNLQDEELCGGLWRLVLAQRWMERLKTVAGSKMQGLLERVNTEIHFVTKCAFQPPPSCLRFVQTNISRLLQETSEQLVALKPWITRQNFSRCLELQCQPDSSTLPPPWSPRPLEATAPTAPQPPLLLLLLLPVGLLLLAAAWCLHWQRTRRRTPRPGEQVPPVPSPQDLLLVEH
notes: Recombinant Human Flt3-Ligand, Peprotech #300-19
- yield and purity of CD45+ hematopoietic cells on retrieval from the differentiation medium [2]: reduced both the yield and purity

B3: colony-stimulating factor 3 (protein, UniProt P09919 31-207, looked up)
Granulocyte …: TPLGPASSLPQSFLLKCLEQVRKIQGDGAALQEKLVSECATYKLCHPEELVLLGHSLGIPWAPLSSCPSQALQLAGCLSQLHSGLFLYQGLLQALEGISPELGPTLDTLQLDVADFATTIWQQMEELGMAPALQPTQGAMPAFASAFQRRAGGVLVASHLQSFLEVSYRVLRHLAQP
- efficiency of generating AGM-like hematopoietic stem cells when used in place of SB431542 [2]: lower efficiency
